Data on five compounds can be found in ChEMBL document CHEMBL3227945, “Synthesis of all the stereoisomers of statine (4-amino-3-hydroxy-6-methylheptanoic acid). Inhibition of pepsin activity by N-carbobenzoxy-L-valyl-L-valyl-statine derived from the four stereoisomers” (J Med Chem, 1979).

Test [1] is filed under the species Sus scrofa. As to the kind of experiment: Inhibition of porcine pepsin activity assessed as hydrolysis of N-Cbz-L-Pheylalanyl-L-Tyrosine substrate.
For test [2], the species on record is Sus scrofa. As to the kind of experiment: Inhibition of porcine pepsin activity assessed as hydrolysis of 0.5% hemoglobin solution substrate after 1 hr.

Converted amounts (≈) assume the structure as drawn.

On to `CC(C)CC(=O)N[C@H](C(=O)N[C@H](C(=O)N[C@@H](CC(C)C)[C@@H](O)CC(=O)N[C@@H](C)C(=O)N[C@@H](CC(C)C)[C@@H](O)CC(=O)O)C(C)C)C(C)C`, for which the ID50 came out at 2 µg/mL (≈ 2.92 µM) in test [1] and 0.0052 µg/mL (≈ 0.00758 µM) in test [2].

Turning to `CC(C)C[C@H](NC(=O)[C@@H](NC(=O)[C@@H](NC(=O)OCc1ccccc1)C(C)C)C(C)C)[C@H](O)CC(=O)O`, the results for the ID50 in test [1] and in test [2] were 12 µg/mL (≈ 23.6 µM) and 21 µg/mL (≈ 41.4 µM), respectively.

`CC(C)C[C@H](NC(=O)[C@@H](NC(=O)[C@@H](NC(=O)OCc1ccccc1)C(C)C)C(C)C)[C@@H](O)CC(=O)O`: the ID50 is 1 µg/mL (≈ 1.97 µM) in test [1] and 0.1 µg/mL (≈ 0.197 µM) in test [2].

With `CC(C)C[C@@H](NC(=O)[C@@H](NC(=O)[C@@H](NC(=O)OCc1ccccc1)C(C)C)C(C)C)[C@@H](O)CC(=O)O`, the ID50 is 219 µg/mL (≈ 431 µM) in test [1] and 224 µg/mL (≈ 441 µM) in test [2].

Consider `CC(C)C[C@@H](NC(=O)[C@@H](NC(=O)[C@@H](NC(=O)OCc1ccccc1)C(C)C)C(C)C)[C@H](O)CC(=O)O`, for which the results for the ID50 in test [1] and in test [2] were 42 µg/mL (≈ 82.7 µM) and 18 µg/mL (≈ 35.5 µM), respectively.
